pEC50, pKi: −log10 of the molar value. Structures can show the parent of a compound that is named as a salt.

Assay [1] concerns the target T1, STING (Homo sapiens, UniProt Q86WV6, G230A/H232R/R293Q/R71H).
T1 construct: host or cells: THP-1 and THP-1 Lucia ISG cells
Description: Phosphorylation of IRF3: THP-1 cell ELISA. It is filed as cell-based. The settings on record: THP-1 cells, 3 hours incubation, phospho-IRF3 ELISA; read-out: THP-1 CELL P-IRF3 EC50. Put shortly: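 THP-1 cells (10^4/well, seeded overnight) were treated with serially diluted compounds (final 0.5% DMSO) for 3 h. Lysates were analysed by sandwich ELISA (anti-IRF3 capture, anti-phospho-IRF3 detection, HRP luminescence). Signal was normalized as % effect between DMSO and a maximal STING agonist control.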
(ELISA stands for enzyme-linked immunosorbent assay.)

Assay [2] addresses T1, STING. Description: Interferon-β induction: THP-1 Lucia ISG reporter cell line. It is filed as cell-based. As to conditions: THP-1 Lucia ISG cells, 24 hours incubation, luciferase reporter; read-out: THP-1 Lucia ISG Cells IFN-β EC50. In a few lines:
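THP-1 Lucia ISG cells (IRF-inducible secreted luciferase) treated 24 h with serially diluted compounds, final 0.5% DMSO, at 37 °C. Supernatant luminescence read with QUANTI-Luc, normalized to % effect between a maximal STING agonist positive control and DMSO.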
For orientation: Reporter assays use an easily measured gene product as a stand-in for the process of interest.

For assay [3], the target named is R232-STING (Homo sapiens, UniProt Q86WV6, H232R). In words: biochemical.
Chain of R232-STING (Q86WV6 155-341 H232R): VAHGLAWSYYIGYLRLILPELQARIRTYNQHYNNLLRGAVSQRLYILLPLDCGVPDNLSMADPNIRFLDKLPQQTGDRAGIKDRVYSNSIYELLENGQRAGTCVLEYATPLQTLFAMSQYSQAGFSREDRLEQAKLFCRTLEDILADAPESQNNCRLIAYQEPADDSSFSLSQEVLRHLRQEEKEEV

T1 sequence (Q86WV6 whole entry R71H/G230A/H232R/R293Q): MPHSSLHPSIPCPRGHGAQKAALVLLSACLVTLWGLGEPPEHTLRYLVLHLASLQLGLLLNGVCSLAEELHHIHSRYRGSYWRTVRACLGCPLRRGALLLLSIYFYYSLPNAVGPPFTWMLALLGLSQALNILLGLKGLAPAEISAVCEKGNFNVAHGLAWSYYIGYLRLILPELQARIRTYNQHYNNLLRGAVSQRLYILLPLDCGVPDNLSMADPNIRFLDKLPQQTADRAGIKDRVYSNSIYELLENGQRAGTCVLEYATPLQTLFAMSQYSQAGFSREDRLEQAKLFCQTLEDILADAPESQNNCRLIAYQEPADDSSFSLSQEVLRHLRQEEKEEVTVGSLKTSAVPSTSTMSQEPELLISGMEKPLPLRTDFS

As a reminder, the pEC50 is −log10 of the EC50, conventionally taken in molar units. The pKi is −log10 of the Ki, conventionally taken in molar units. Low values mean a high Ki, high ones a low Ki. Turning to `Cc1cc(-c2n[nH]c(-c3cc(C(N)=O)cc4c3cnn4C)n2)n(CCC(=O)O)n1` [Example C03, 3-{5-[5-(6-carbamoyl-1-methyl-1H-indazol-4-yl)-1H-1,2,4-triazol-3-yl]-3-methyl-1H-pyrazol-1-yl}propanoic acid], the pEC50 in assay [1] was 4.96; in assay [2], 5.05. In assay [3], this molecule had a pKi of 8.09.

Turning to `Cc1nn(CCCO)c(-c2nc(-c3nc(C(N)=O)cc4c3cnn4C)c(CN)s2)c1O` [Example AF02], the pEC50 in assay [1] was 5.65; in assay [2], 5.71. For the same molecule, in assay [3], the pKi is 7.94.

Take `CCn1nc(C)c(F)c1-c1n[nH]c(-c2cc(C(N)=O)cc3c2cnn3CCCN)n1` [YY12, 1-(3-aminopropyl)-4-[3-(1-ethyl-4-fluoro-3-methyl-1H-pyrazol-5-yl)-1H-1,2,4-triazol-5-yl]-1H-indazole-6-carboxamide]: the pEC50 in assay [1] and in assay [2] was < 4.00 throughout. For the same molecule, the pKi in assay [3] was 6.14.

Take `CCn1nc(C)cc1-c1nc(-c2nc(C(N)=O)cc3c2cnn3C)c(C(C)N)s1` (single isomer, unassigned) [Example W02, 4-[5-(1-aminoethyl)-2-(1-ethyl-3-methyl-1H-pyrazol-5-yl)-1,3-thiazol-4-yl]-1-methyl-1H-pyrazolo[4,3-c]pyridine-6-carboxamide]: the pEC50 in assay [1] was 5.63; in assay [2], 5.61. Also, in assay [3], the pKi was 7.17.

For `CCn1nc(C)cc1-c1n[nH]c(-c2cc(C(N)=O)cc3nn(C)cc23)n1` [Example C01, 4-[3-(1-ethyl-3-methyl-1H-pyrazol-5-yl)-1H-1,2,4-triazol-5-yl]-2-methyl-2H-indazole-6-carboxamide], the values for the pEC50 in assay [1] and in assay [2] were ≤ 4.00 and 4.34, respectively. In assay [3], this molecule had a pKi of 6.64.

Turning to `CCn1nc(C)cc1-c1nc(-c2nc(C(N)=O)cc3c2cnn3C)c(C(C)N)s1` (racemic) [Compound W-7, 1-(4-(6-carbamoyl-1-methyl-1H-pyrazolo[4,3-c]pyridin-4-yl)-2-(1-ethyl-3-methyl-1H-pyrazol-5-yl)thiazol-5-yl)ethan-1-aminium trifluoroacetate], the pEC50 in assay [1] was 5.82; in assay [2], 5.73. In assay [3], the negative-log Ki (pKi) is 7.48.

As to `CCn1nc(C)cc1-c1n[nH]c(-c2cc(C(N)=O)cc3c2ccn3C)n1` [Example A02, 4-[3-(1-ethyl-3-methyl-1H-pyrazol-5-yl)-1H-1,2,4-triazol-5-yl]-1-methyl-1H-indole-6-carboxamide], the pEC50 was 5.18 in assay [1] and 5.13 in assay [2]. This molecule gave a pKi in assay [3] of 7.53.

On to `Cc1nn(CCC(=O)O)c(-c2n[nH]c(-c3cc(C(N)=O)cc4c3cnn4C)n2)c1F` [YY06, 3-{5-[5-(6-carbamoyl-1-methyl-1H-indazol-4-yl)-1H-1,2,4-triazol-3-yl]-4-fluoro-3-methyl-1H-pyrazol-1-yl}propanoic acid], for which the pEC50 in assay [1] and in assay [2] was < 4.00 in each case. For the same molecule, in assay [3], the pKi is 7.33.

As for `CCn1nc(C)cc1-c1n[nH]c(-c2cc(C(N)=O)cc3c2cnn3CCN2CCS(=O)(=O)CC2)n1` [YY27, 1-[2-(1,1-dioxo-1lambda~6~-thiomorpholin-4-yl)ethyl]-4-[3-(1-ethyl-3-methyl-1H-pyrazol-5-yl)-1H-1,2,4-triazol-5-yl]-1H-indazole-6-carboxamide], the pEC50 in assay [1] and in assay [2] was < 4.48 in each case. In addition, the pKi in assay [3] is 6.31.

With `CCn1nc(C)c(O)c1-c1nc(-c2nc(C(N)=O)cc3c2cnn3C)co1` [Example AE01, 4-[2-(1-ethyl-4-hydroxy-3-methyl-1H-pyrazol-5-yl)-1,3-oxazol-4-yl]-1-methyl-1H-pyrazolo[4,3-c]pyridine-6-carboxamide], the results for the pEC50 in assay [1] and in assay [2] were 6.70 and 6.80, respectively. The molecule also gave a pKi in assay [3] of 8.59.

In the case of `CCn1nc(C)cc1-c1n[nH]c(-c2c(F)c(C(N)=O)cc3c2cnn3C)n1` [Example E01, 4-[3-(1-ethyl-3-methyl-1H-pyrazol-5-yl)-1H-1,2,4-triazol-5-yl]-5-fluoro-1-methyl-1H-indazole-6-carboxamide], the pEC50 in assay [1] and in assay [2] was 6.19 throughout. The molecule further showed a pKi in assay [3] of 7.54.

`CCn1nc(C)c(F)c1-c1nc(-c2cc(C(N)=O)cn3c(C)ncc23)n[nH]1` [Example F01, 8-[5-(1-ethyl-4-fluoro-3-methyl-1H-pyrazol-5-yl)-1H-1,2,4-triazol-3-yl]-3-methylimidazo[1,5-a]pyridine-6-carboxamide]: the negative logarithm of the EC50 (pEC50) is 6.11 in assay [1] and 6.17 in assay [2]. Also, in assay [3], the pKi is 7.03.

On to `CCn1nc(C)cc1-c1nnc(-c2cc(C(N)=O)cc3c2cnn3CCN(C)C)[nH]1` [YY04, 1-[2-(dimethylamino)ethyl]-4-[5-(1-ethyl-3-methyl-1H-pyrazol-5-yl)-4H-1,2,4-triazol-3-yl]-1H-indazole-6-carboxamide], for which the pEC50 in assay [1] and in assay [2] was < 4.00 throughout. For the same molecule, the negative logarithm of the Ki (pKi) in assay [3] was < 6.19.

Take `CCn1nc(C)cc1-c1nnc(-c2cc(C(N)=O)cc3c2cnn3CC[C@H](C)C2CCNCC2)[nH]1` (racemic) [YY18, 4-[5-(1-ethyl-3-methyl-1H-pyrazol-5-yl)-4H-1,2,4-triazol-3-yl]-1-[(3S)-3-(piperidin-4-yl)butyl]-1H-indazole-6-carboxamide]: the pEC50 in assay [1] and in assay [2] was < 4.00 each time. The pKi in assay [3] is 6.36.

Consider `CCn1cc2c(-c3nc(-c4cc(C)nn4CC)n[nH]3)cc(C(N)=O)cc2n1` [Example B02, 2-ethyl-4-[3-(1-ethyl-3-methyl-1H-pyrazol-5-yl)-1H-1,2,4-triazol-5-yl]-2H-indazole-6-carboxamide], for which the pEC50 in assay [1] was 5.10; in assay [2] it was 5.20. Further, the pKi in assay [3] was 7.34.

Take `CCn1nc(C)cc1-c1n[nH]c(-c2cc(C(N)=O)cc3c2cnn3CC(=O)O)n1` [Example P01, {6-carbamoyl-4-[3-(1-ethyl-3-methyl-1H-pyrazol-5-yl)-1H-1,2,4-triazol-5-yl]-1H-indazol-1-yl}acetic acid]: the pEC50 in assay [1] is 4.12; in assay [2] it was ≤ 4.00. For the same molecule, the pKi in assay [3] is 6.62.

As for `CCn1nc(C)c(O)c1-c1nc(-c2nc(C(N)=O)cc3c2cnn3C)n(C)n1` [Example Q01, 4-[3-(1-ethyl-4-hydroxy-3-methyl-1H-pyrazol-5-yl)-1-methyl-1H-1,2,4-triazol-5-yl]-1-methyl-1H-pyrazolo[4,3-c]pyridine-6-carboxamide], the pEC50 is 6.92 in assay [1] and 6.85 in assay [2]. This molecule also had a negative-log Ki (pKi) in assay [3] of 8.49.

With `CCn1nc(C)cc1-c1n[nH]c(-c2cc(C(N)=O)cc3c2cnn3CCN2CCNC(=O)C2)n1` [YY26, 4-[3-(1-ethyl-3-methyl-1H-pyrazol-5-yl)-1H-1,2,4-triazol-5-yl]-1-[2-(3-oxopiperazin-1-yl)ethyl]-1H-indazole-6-carboxamide], the pEC50 in assay [1] and in assay [2] was < 4.48 in each case. Also, in assay [3], the pKi is 6.71.

As to `CCn1nc(C)c(F)c1-c1nc(-c2nc(C(N)=O)cc3c2cnn3C)c(CN)s1` [Example S01, 4-[5-(aminomethyl)-2-(1-ethyl-4-fluoro-3-methyl-1H-pyrazol-5-yl)-1,3-thiazol-4-yl]-1-methyl-1H-pyrazolo[4,3-c]pyridine-6-carboxamide], the pEC50 is 5.89 in assay [1] and 5.64 in assay [2]. For the same molecule, the negative logarithm of the Ki (pKi) in assay [3] was 7.94.

Take `CCn1nc(C)c(O)c1-c1n[nH]c(-c2nc(C(N)=O)cc3c2cnn3CCN2CC(F)C2)n1` [YY33, 4-[3-(1-ethyl-4-hydroxy-3-methyl-1H-pyrazol-5-yl)-1H-1,2,4-triazol-5-yl]-1-[2-(3-fluoroazetidin-1-yl)ethyl]-1H-pyrazolo[4,3-c]pyridine-6-carboxamide]: the results for the pEC50 in assay [1] and in assay [2] were < 5.00 and < 4.95, respectively. In assay [3], this molecule had a pKi of 6.78.

As to `CCn1nc(C)cc1-c1n[nH]c(-c2cc(C(N)=O)cc3c2cnn3CCN2C[C@H](C)OC[C@@H]2C)n1` [Example M04], the pEC50 in assay [1] was 4.55; in assay [2], 4.54. Besides, the pKi in assay [3] is 6.51.

Regarding `Cc1cc(-c2nc(-c3nc(C(N)=O)cc4c3cnn4C)c(CN)s2)n(CCCO)n1` [Example AF01, 4-{5-(aminomethyl)-2-[1-(3-hydroxypropyl)-3-methyl-1H-pyrazol-5-yl]-1,3-thiazol-4-yl}-1-methyl-1H-pyrazolo[4,3-c]pyridine-6-carboxamide], the pEC50 in assay [1] was 5.23; in assay [2], 5.28. The same molecule showed a pKi in assay [3] of 6.86.

With `CCn1nc(C)cc1-c1n[nH]c(-c2cc(C(N)=O)cc3c2cnn3CCN2CCOC(C)C2)n1` (stereo not drawn) [YY22, 4-[3-(1-ethyl-3-methyl-1H-pyrazol-5-yl)-1H-1,2,4-triazol-5-yl]-1-[2-(2-methylmorpholin-4-yl)ethyl]-1H-indazole-6-carboxamide], the negative logarithm of the EC50 (pEC50) in assay [1] and in assay [2] was < 4.48 each time. This molecule also gave a pKi in assay [3] of 6.31.

`CCn1nc(C)cc1-c1n[nH]c(-c2cc(C(N)=O)cc3c2cnn3C)n1` [Example A01, 4-[3-(1-ethyl-3-methyl-1H-pyrazol-5-yl)-1H-1,2,4-triazol-5-yl]-1-methyl-1H-indazole-6-carboxamide]: the negative logarithm of the EC50 (pEC50) in assay [1] was 6.04; in assay [2] it was 5.99. The pKi in assay [3] was 7.60.

These data come from US12297190B2, “Modulators of STING (stimulator of interferon genes)” (PFIZER INC., priority 2019, dated 2025).
